Laboratory results: patent publication US9730940B2, “Purine inhibitors of human phosphatidylinositol 3-kinase delta” (priority 2012, dated 2017)

Target: PI3K-alpha (Homo sapiens (Human), UniProt P42336)
Experiment: HTRF PI3K biochemical assay, alpha isoform
Details: ratio PI3K-alpha IC50 value/PI3K-delta IC50 value
Text: HTRF PI3K Biochemical Assay to Measure Intrinsic Potency of Compound Inhibitors
The PI3-Kinase biochemical assays were developed to measure the intrinsic potency and compound dependent inhibition of the alpha, beta, delta, and gamma PI3K isoform enzymes. This assay was developed and further optimized from a kit produced by Upstate (Millipore catalog #33-047) and has been configured for HTS and SAR screening. Briefly, this procedure exploits the exquisite specificity and high affinity binding of enzyme reaction substrate phosphatidyl(3,4,5)triphosphate (PIP3) to the GRP1 pleckstrin homology (PH) domain to generate the signal. In the absence of PIP3, an HTRF (Homogeneous Time-Resolved Fluorescence energy transfer) complex is formed consisting of europium (Eu)-labeled anti-GST, GST tagged GRP1-PH domain, biotin-PIP3 and streptavidin conjugated APC. The native PIP3 produced by PI3-Kinase activity disrupts in a competitive manner the biotin-PIP3 from the PH domain, resulting in the loss of energy transfer (HTRF complex) and a decrease in the signal. The format of this assay is the same for all 4 isoforms of PI3K; the differences lie in the concentration of enzyme used to achieve robust assay window. The alpha, beta, and delta assays are run at 0.5, 1, and 0.3 nM enzymes and the gamma assay is run at 5 nM enzyme. The ATP concentration is 100 uM in the alpha, beta, and delta assays and 50 uM ATP in the gamma assay. All reactions are run at 5 uM PIP2.
Compounds are serially diluted (3-fold in 100% DMSO) across a 384-well polypropylene source plated from column 3 to column 12 and column 13 to column 22, to yield 10 concentration dose response for each test compound. Columns 1, 2, 23 and 24 contain either only DMSO or pharmacological known control inhibitor.
The PI3-Kinase biochemical assay was optimized using the HTRF kit provided by Upstate (Millipore). The assay kit contains six reagents: 1) 4× Reaction Buffer; 2) native PIP2 (substrate); 3) Stop (EDTA); 4) Detection Mix A (Streptavidin-APC); 5) Detection Mix B (Eu-labeled Anti-GST plus GST-tagged PH-domain); 6) Detection Mix C.
PI3Kinase Reaction Buffer is prepared by dilution the stock 1:4 with de-ionized water. […] Enzyme addition and compound pre-incubation are initiated by the addition of 1.25 ul of PI3K (at twice its final concentration) in the 1× reaction buffer to all wells using a BioRaptor. Plates are incubated at room temperature for 15 minutes. Reactions are initiated by addition of 1.25 ul of 2× substrate solution (PIP2 and ATP in 1× reaction buffer) using BioRaptor. Plates are incubated in humidified chamber at room temperature for one hour. Reactions are quenched by addition of 0.625 uL of stop solution to all wells using the BioRaptor. The quenched reactions are then processed to detect product formation by adding 0.625 uL of Detection Solution to all wells using the BioRaptor (Detection mix C, Detection Mix A, and Detection Mix B combined together in an 18:1:1 ratio prepared 2 hours prior to use).
The loss of the HTRF signal is due to the displacement of biotinylated-PIP3 from the PH domain by the PI3K-dependent conversion of PIP2 to PIP3. This loss of signal is nonlinear with respect to both increasing product and time. This non-linear detection will impact accuracy of IC50 calculations; therefore, there is a need for a correction factor to obtain more accurate IC50 values. This correction is derived from a PIP3 standard curve run in a separate assay plate. All data were calculated using the ratio of acceptor (APC) to donor (Europium) fluorescence in each well of the assay plate. […] An IC50 was then calculated fitting the % inhibition data to the equation: % inhibition=min+(Max−min)/1+([inhibitor]/IC50)^n) where min is the % inhibition […], max is the signal in DMSO control, and n is the Hill slope.

Sequence of PI3K-alpha (P42336 whole entry, looked up, canonical isoform): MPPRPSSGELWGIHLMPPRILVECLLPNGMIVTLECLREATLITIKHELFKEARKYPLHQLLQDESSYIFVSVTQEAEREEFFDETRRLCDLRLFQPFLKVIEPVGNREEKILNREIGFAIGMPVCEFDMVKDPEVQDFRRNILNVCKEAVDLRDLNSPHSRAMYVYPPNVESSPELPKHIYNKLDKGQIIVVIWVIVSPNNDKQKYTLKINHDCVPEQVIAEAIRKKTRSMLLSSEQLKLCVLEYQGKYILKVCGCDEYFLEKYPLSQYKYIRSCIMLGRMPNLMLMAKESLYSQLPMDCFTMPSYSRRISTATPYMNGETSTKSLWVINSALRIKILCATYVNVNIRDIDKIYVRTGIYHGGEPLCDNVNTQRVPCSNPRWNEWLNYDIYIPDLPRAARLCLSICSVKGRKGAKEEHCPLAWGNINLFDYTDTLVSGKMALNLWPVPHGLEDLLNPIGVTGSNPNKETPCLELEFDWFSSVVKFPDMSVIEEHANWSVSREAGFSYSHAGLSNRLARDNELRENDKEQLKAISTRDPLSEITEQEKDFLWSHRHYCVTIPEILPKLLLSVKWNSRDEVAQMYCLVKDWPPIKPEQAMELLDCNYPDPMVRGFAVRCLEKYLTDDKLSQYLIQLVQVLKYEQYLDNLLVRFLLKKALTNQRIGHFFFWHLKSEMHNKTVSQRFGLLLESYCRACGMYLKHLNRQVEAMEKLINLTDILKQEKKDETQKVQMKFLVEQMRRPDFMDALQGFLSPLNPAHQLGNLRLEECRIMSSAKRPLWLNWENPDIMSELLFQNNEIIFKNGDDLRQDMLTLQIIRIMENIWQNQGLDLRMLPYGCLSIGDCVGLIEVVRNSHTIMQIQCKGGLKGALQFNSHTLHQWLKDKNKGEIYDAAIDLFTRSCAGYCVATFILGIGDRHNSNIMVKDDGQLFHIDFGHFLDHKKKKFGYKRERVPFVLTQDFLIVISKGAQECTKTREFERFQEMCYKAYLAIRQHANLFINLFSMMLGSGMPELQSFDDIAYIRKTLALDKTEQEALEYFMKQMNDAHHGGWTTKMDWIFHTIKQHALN
Sequence of PI3K-alpha (P27986 whole entry partner, looked up, canonical isoform): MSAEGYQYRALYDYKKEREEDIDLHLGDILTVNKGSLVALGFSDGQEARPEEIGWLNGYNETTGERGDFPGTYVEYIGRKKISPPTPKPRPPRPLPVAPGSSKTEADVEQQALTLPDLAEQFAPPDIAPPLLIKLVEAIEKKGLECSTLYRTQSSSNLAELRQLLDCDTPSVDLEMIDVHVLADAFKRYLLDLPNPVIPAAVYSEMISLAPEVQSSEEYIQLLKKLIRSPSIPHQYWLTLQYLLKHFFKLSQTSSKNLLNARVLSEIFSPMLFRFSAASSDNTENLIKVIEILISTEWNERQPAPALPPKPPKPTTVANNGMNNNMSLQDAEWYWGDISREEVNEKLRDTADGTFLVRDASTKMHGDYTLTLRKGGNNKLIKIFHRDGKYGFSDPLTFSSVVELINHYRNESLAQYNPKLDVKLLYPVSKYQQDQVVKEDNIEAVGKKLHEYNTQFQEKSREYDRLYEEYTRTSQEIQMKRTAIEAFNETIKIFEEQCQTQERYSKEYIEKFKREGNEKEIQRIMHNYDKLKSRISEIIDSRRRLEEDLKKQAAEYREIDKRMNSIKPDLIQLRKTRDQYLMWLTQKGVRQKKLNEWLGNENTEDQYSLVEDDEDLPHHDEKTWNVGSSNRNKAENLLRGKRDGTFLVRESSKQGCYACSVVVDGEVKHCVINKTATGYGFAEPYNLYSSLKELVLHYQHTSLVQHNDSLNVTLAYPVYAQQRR

SMILES: CCn1c(-c2cnc(C)nc2)nc2c(OC3CN(C(=O)C4CC4)CC3C)ncnc21 (single isomer, unassigned) [Compound 3-65, [(3S,4R) or (3R,4S)]6-{[1-(cyclopropylcarbonyl)-4-methylpyrrolidin-3-yl]oxy}-9-ethyl-8-(2-methylpyrimidin-5-yl)-9H-purine]
- Relative Selectivity versus PI3Kalpha: >10

SMILES: CCn1c(-c2cnc(C)nc2)nc2c(OC3CN(C(=O)C4CC4)CC3C(F)F)ncnc21 (single isomer, unassigned) [Compound 3-66, cyclopropyl([(3R,4S) or (3S,4R)]-3-(difluoromethyl)-4-((9-ethyl-8-(2-methylpyrimidin-5-yl)-9H-purin-6-yl)oxy)pyrrolidin-1-yl)methanone]
- Relative Selectivity versus PI3Kalpha: >10

SMILES: CCn1c(-c2cnc(C)nc2)nc2c(OC3CN(C(=O)C4CC4)CC3C(F)F)ncnc21 (single isomer, unassigned) [Compound 3-67, cyclopropyl([(3R,4S) or (3S,4R)]-3-(difluoromethyl)-4-((9-ethyl-8-(2-methylpyrimidin-5-yl)-9H-purin-6-yl)oxy)pyrrolidin-1-yl)methanone]
- Relative Selectivity versus PI3Kalpha: >10

SMILES: CCn1c(-c2cnc(C)nc2)nc2c(OC3CN(C(=O)C4CC4)CC3CF)ncnc21 (single isomer, unassigned) [Compound 3-68, cyclopropyl([(3S,4R) or (3R,4S)]-3-((9-ethyl-8-(2-methylpyrimidin-5-yl)-9H-purin-6-yl)oxy)-4-(fluoromethyl)pyrrolidin-1-yl)methanone]
- Relative Selectivity versus PI3Kalpha: >10

SMILES: CCn1c(-c2cnc(C)nc2)nc2c(OC3CN(C(=O)C4CC4)CC3CF)ncnc21 (single isomer, unassigned) [Compound 3-69, cyclopropyl([(3S,4R) or (3R,4S)]-3-((9-ethyl-8-(2-methylpyrimidin-5-yl)-9H-purin-6-yl)oxy)-4-(fluoromethyl)pyrrolidin-1-yl)methanone]
- Relative Selectivity versus PI3Kalpha: >10

SMILES: CCn1c(-c2cnc(C)nc2)nc2c(OC3CCC(NC(=O)C4CCOCC4)C3)ncnc21 (single isomer, unassigned) [Compound 9-9, N-[(1S,3S) or (1R,3R)]-(3-{[9-ethyl-8-(2-methylpyrimidin-5-yl)-9H-purin-6-yl]oxy}cyclopentyl)tetrahydro-2H-pyran-4-carboxamide]
- Relative Selectivity versus PI3Kalpha: >10

SMILES: CCn1ncc(-c2nc3c(O[C@H]4CCN(C(=O)OC(C)(C)C)C4)ncnc3n2C)c1C [Compound 1-1, tert-butyl (3S)-3-{[8-(1-ethyl-5-methyl-1H-pyrazol-4-yl)-9-methyl-9H-purin-6-yl]oxy}pyrrolidine-1-carboxylate]
- Relative Selectivity versus PI3Kalpha: >10

SMILES: CCn1ncc(-c2nc3c(O[C@H]4CCNC4)ncnc3n2C)c1C [Compound 1-2, 8-(1-ethyl-5-methyl-1H-pyrazol-4-yl)-9-methyl-6-[(3S)-pyrrolidin-3-yloxy]-9H-purine]
- Relative Selectivity versus PI3Kalpha: >5

SMILES: CCn1c(-c2cnc(C)nc2)nc2c(O[C@H]3CCN(C(=O)OC(C)(C)C)C3)ncnc21 [Compound 1-3, (S)-tert-butyl 3-(9-ethyl-8-(2-methylpyrimidin-5-yl)-9H-purin-6-yloxy)pyrrolidine-1-carboxylate]
- Relative Selectivity versus PI3Kalpha: >10

SMILES: CCn1ncc(-c2nc3c(O[C@H]4CCN(C(=O)OCC(C)C)C4)ncnc3n2C)c1C [Compound 1-4, 2-methylpropyl (3S)-3-{[8-(1-ethyl-5-methyl-1H-pyrazol-4-yl)-9-methyl-9H-purin-6-yl]oxy}pyrrolidine-1-carboxylate]
- Relative Selectivity versus PI3Kalpha: >10

SMILES: CCn1ncc(-c2nc3c(O[C@H]4CCN(C(=O)OCc5ccccc5)C4)ncnc3n2C)c1C [Compound 1-6, benzyl (3S)-3-{[8-(1-ethyl-5-methyl-1H-pyrazol-4-yl)-9-methyl-9H-purin-6-yl]oxy}pyrrolidine-1-carboxylate]
- Relative Selectivity versus PI3Kalpha: 4

SMILES: CCn1ncc(-c2nc3c(O[C@H]4CCN(C(=O)OCC(C)(C)C)C4)ncnc3n2C)c1C [Compound 1-9, 2,2-dimethylpropyl (3S)-3-{[8-(1-ethyl-5-methyl-1H-pyrazol-4-yl)-9-methyl-9H-purin-6-yl]oxy}pyrrolidine-1-carboxylate]
- Relative Selectivity versus PI3Kalpha: >10

SMILES: COc1ncc(-c2nc3c(O[C@H]4CCN(C(=O)OC(C)(C)C)C4)ncnc3n2C)cc1C [Compound 1-13, tert-butyl (3S)-3-{[8-(6-methoxy-5-methylpyridin-3-yl)-9-methyl-9H-purin-6-yl]oxy}pyrrolidine-1-carboxylate]
- Relative Selectivity versus PI3Kalpha: >10

SMILES: Cc1ncc(-c2nc3c(OC4CCN(C(=O)OC(C)(C)C)C4)ncnc3n2C)cn1 [Compound 1-14, terl-butyl (3S)-3-{[9-methyl-8-(2-methylpyrimidin-5-yl)-9H-purin-6-yl]oxy}pyrrolidine-1-carboxylate]
- Relative Selectivity versus PI3Kalpha: >10

SMILES: Cn1c(-c2ccc(-n3cccn3)cc2)nc2c(O[C@H]3CCN(C(=O)OC(C)(C)C)C3)ncnc21 [Compound 1-15, tert-butyl (3S)-3-({9-methyl-8-[4-(1H-pyrazol-1-yl)phenyl]-9H-purin-6-yl}oxy)pyrrolidine-1-carboxylate]
- Relative Selectivity versus PI3Kalpha: >10

SMILES: Cc1nn(C)cc1-c1nc2c(O[C@H]3CCN(C(=O)OC(C)(C)C)C3)ncnc2n1C [Compound 1-16, tert-butyl (3S)-3-{[8-(1,3-dimethyl-1H-pyrazol-4-yl)-9-methyl-9H-purin-6-yl]oxy}pyrrolidine-1-carboxylate]
- Relative Selectivity versus PI3Kalpha: >9

SMILES: Cc1ncc(-c2nc3c(O[C@H]4CCN(C(=O)OC(C)(C)C)C4)ncnc3n2C)n1C [Compound 1-17, tert-butyl (3S)-3-{[8-(1,2-dimethyl-1H-imidazol-5-yl)-9-methyl-9H-purin-6-yl]oxy}pyrrolidine-1-carboxylate]
- Relative Selectivity versus PI3Kalpha: >10

SMILES: Cn1c(-c2ccc(O)cc2)nc2c(O[C@H]3CCN(C(=O)OC(C)(C)C)C3)ncnc21 [Compound 1-18, tert-butyl (3S)-3-{[8-(4-hydroxyphenyl)-9-methyl-9H-purin-6-yl]oxy}pyrrolidine-1-carboxylate]
- Relative Selectivity versus PI3Kalpha: >10

SMILES: Cn1c(-c2cn[nH]c2)nc2c(O[C@H]3CCN(C(=O)OC(C)(C)C)C3)ncnc21 [Compound 1-19, tert-butyl (3S)-3-{[9-methyl-8-(1H-pyrazol-4-yl)-9H-purin-6-yl]oxy}pyrrolidine-1-carboxylate]
- Relative Selectivity versus PI3Kalpha: >10

SMILES: CN(C)c1ccc(-c2nc3c(O[C@H]4CCN(C(=O)OC(C)(C)C)C4)ncnc3n2C)cn1 [Compound 1-20, tert-butyl (3S)-3-{[8-(6-(dimethylamino)pyridin-3-yl]-9-methyl-9H-purin-6-yl}oxy)pyrrolidine-1-carboxylate]
- Relative Selectivity versus PI3Kalpha: >10

SMILES: Cc1cc2cccc(-c3nc4c(O[C@H]5CCN(C(=O)OC(C)(C)C)C5)ncnc4n3C)c2[nH]1 [Compound 1-21, tert-butyl (3S)-3-{[9-methyl-8-(2-methyl-1H-indol-7-yl)-9H-purin-6-yl]oxy}pyrrolidine-1-carboxylate]
- Relative Selectivity versus PI3Kalpha: >10

SMILES: Cn1c(-c2cnn3cccnc23)nc2c(O[C@H]3CCN(C(=O)OC(C)(C)C)C3)ncnc21 [Compound 1-22, tert-butyl (3S)-3-[(9-methyl-8-pyrazolo[1,5-a]pyrimidin-3-yl-9H-purin-6-yl)oxy]pyrrolidine-1-carboxylate]
- Relative Selectivity versus PI3Kalpha: >10

SMILES: CC(=O)Nc1ccc(-c2nc3c(O[C@H]4CCN(C(=O)OC(C)(C)C)C4)ncnc3n2C)cc1 [Compound 1-23, tert-butyl (3S)-3-({8-[4-(acetylamino)phenyl]-9-methyl-9H-purin-6-yl}oxy)pyrrolidine-1-carboxylate]
- Relative Selectivity versus PI3Kalpha: >10
